Laboratory results taken from PMC3310380 (Journal of Biomolecular Screening, 2010).

B1: Probe A (dsDNA)
DNA 1: GGGTAGCATATGCTACCC
DNA 2: GGGTAGCATATGCTACCC

What was measured:
[1] = test system: EBV genome copy number in Raji Burkitt lymphoma cells; test: EBV genome maintenance assay in Raji cells; assay type: cell-based, Epstein-Barr virus; details: six days, 50 μM
EBNA1 DBD = EBNA1 DBD (Epstein-Barr virus, UniProt P03211 459-607); test: EMSA
Chain of EBNA1 DBD (P03211 459-607): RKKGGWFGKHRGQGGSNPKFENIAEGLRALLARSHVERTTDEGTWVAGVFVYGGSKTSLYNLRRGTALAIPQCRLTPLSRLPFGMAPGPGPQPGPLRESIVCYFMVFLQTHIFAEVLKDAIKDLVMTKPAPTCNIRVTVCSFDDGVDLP

Row | Molecule | EBV DNA copy number, of its original content relative to cellular actin [1] | binding result (EBNA1 DBD)
1 | NC(=O)NO [HU, hydroxyurea] | ~ 48% | –
2 | B1 | – | binds
